Source: patent publication US8318419B2, “Antiviral screening method to identify inhibitors of phosphatidylinositol 4,5-bisphosphate [PI(4,5)P2] binding to the HIV gag matrix (MA) protein” (priority 2007, dated 2012)
“And” between values parts separate entries of the source, which are not always exact repeats. Identical values can stand only once. Like-named read-outs stand apart in the source and are kept apart here.

What was measured:
HIV-1 myrMA [1] = molecular target: T1, HIV-1 myrMA (Human immunodeficiency virus type 1 group M subtype B, UniProt P12493); details: for binding to myrMA (changes in NMR spectra upon titration): 1H-15N HSQC titration; for triggering of myristate exposure: NMR; for Kd: read-out: dissociation constant (Kd), fit to 1:1 binding isotherms, 35° C., pH 5.5
Protocol: (§1) HIV-1 myrMA and myr(−)MA proteins were prepared as described (19, 37). Phosphoinositides PI(4,5)P2, di-C4-PI(4,5)P2, di-C8-PI(4,5)P2, di-C4-PI, di-C4-PI(3)P, di-C4-PI(4)P, di-C4-PI(5)P, di-C4-PI(3,5)P2, di-C8-PI(3,4,5)P2, and di-C4-PI (Echelon, Salt Lake City, Utah) and di-C4-phosphatidylcholine (Avanti Polar Lipids) were obtained commercially and used without further purification. Samples for all NMR experiments were prepared in 50 mM sodium phosphate at pH 5.5 and 5 mM DTT.
(§2) NMR data [Bruker DRX (Billerica, Mass.); 800 MHz ^1H and DMX 600 MHz ^1H spectrometers equipped with cryoprobes] were obtained from a combination of 2D, 3D, and 4D NOESY data, for combinations of natural abundance; ^15N-, ^15N-, and ^13C-labeled protein samples (35° C.). Protein signals were assigned as described (19, 37). Phosphoinositide signals were assigned from 2D heteronuclear multiple-quantum coherence (HMQC), heteronuclear multiple bond correlation (HMBC), NOESY, total correlation spectroscopy (TOCSY), and COSY data (the ^1H and ^13C NMR signals of the 1′- and 2′-acyl chains were resolved in the 2D spectra), and intra- and intermolecular ^1H-^1H NOEs were assigned from 2D (^1H-^1H), 3D (^13C-, ^15N-, and ^13C-edited/^12C-double-half-filtered), and 4D ([…] and ^13C/^13C-edited) NOESY data (39, 40). Binding isotherms from ^1H-^15N NMR HSQC titration experiments were calculated with ORIGIN 7.0 software (Microcal Software, Northampton, Mass.).

HIV-1 myrMA [2] = molecular target: T1, HIV-1 myrMA; assay type: binding; design: mediated by the matrix (MA) domain of Gag, a 132-residue polypeptide containing an N-terminal myristyl group; made in house; details: for Kd: fit to 1:1 binding isotherms, read-out: dissociation constant (Kd)
Protocol: as §1, §2

Row | Molecule | binding to myrMA (changes in NMR spectra upon titration) (HIV-1 myrMA [1]) | triggering of myristate exposure (HIV-1 myrMA [1]; myrMA) | other results
1 | CCCC(=O)OC[C@H](COP(=O)([O-])OCC[N+](C)(C)C)OC(=O)CCC [di-C4-phosphatidylcholine] | does not bind |  | 
2 | PI(5)P | do not bind MA with significant affinity |  | 
3 | CCCC(=O)OC[C@H](COP(=O)(O)O[C@@H]1[C@H](O)[C@H](OP(=O)(O)O)[C@@H](O)[C@H](O)[C@H]1O)OC(=O)CCC [di-C4-PI(3)P] | No detectable changes |  | 
4 | CCCC(=O)OC[C@H](COP(=O)(O)O[C@H]1[C@H](O)[C@@H](OP(=O)(O)O)[C@H](OP(=O)(O)O)[C@@H](OP(=O)(O)O)[C@H]1O)OC(=O)CCC [di-C4-PI(3,4,5)P3] |  | triggers myristate exposure | Kd (HIV-1 myrMA [1]; myrMA): 81 ± 18 µM
5 | PI(4)P | do not bind MA with significant affinity | do not bind MA with significant affinity or trigger myristate exposure | 
6 | CCCC(=O)OC[C@H](COP(=O)(O)O[C@@H]1[C@H](O)[C@H](O)[C@@H](OP(=O)(O)O)[C@H](OP(=O)(O)O)[C@H]1O)OC(=O)CCC [di-C4-PI(4,5)P2, di-butyryl-PI(4,5)P2] |  | causes extrusion of the myristyl group | chemical-shift changes ΔδHN of group 1 residues (HIV-1 myrMA [1]; myrMA, upon addition of the lipid): 0.1-0.8 ppm; Kd (HIV-1 myrMA [1]; myrMA): 150 ± 30 µM; Kd (HIV-1 myrMA [2]): 240 ± 60 µM
7 | CCCCCCCC(=O)OC[C@H](COP(=O)(O)O[C@@H]1[C@H](O)[C@H](O)[C@@H](OP(=O)(O)O)[C@H](OP(=O)(O)O)[C@H]1O)OC(=O)CCCCCCC [di-C8-PI(4,5)P2, di-octyl-PI(4,5)P2] |  |  | affinity for myr(−)MA relative to di-C4-PI(4,5)P2 (HIV-1 myrMA [2]): 3 fold and > 3 fold; Kd (HIV-1 myrMA [2]): 83 ± 4 µM
8 | PI(3)P | do not bind MA with significant affinity | do not bind MA with significant affinity or trigger myristate exposure | 
9 | CCCC(=O)OC[C@H](COP(=O)(O)OC1[C@H](O)[C@H](O)C(O)[C@H](O)[C@H]1O)OC(=O)CCC (stereo partly drawn) [di-C4-PI] | No detectable changes |  | 
10 | CCCC(=O)OCC(COP(=O)(O)OC1C(O)C(OP(=O)(O)O)C(O)C(OP(=O)(O)O)C1O)OC(=O)CCC (stereo not drawn) [di-C4-PI(3,5)P2] | does not bind | does not bind myrMA or trigger myristate exposure | 
11 | PI(3,5)P2 | do not bind MA with significant affinity | do not bind MA with significant affinity or trigger myristate exposure | 
12 | CCCC(=O)OCC(COP(=O)(O)OC1C(O)C(O)C(OP(=O)(O)O)C(O)C1O)OC(=O)CCC (stereo not drawn) [di-C4-PI(4)P] | No detectable changes |  | 
13 | CCCC(=O)OCC(COP(=O)(O)OC1C(O)C(O)C(O)C(OP(=O)(O)O)C1O)OC(=O)CCC (stereo not drawn) [di-C4-PI(5)P] | No detectable changes |  | 
14 | phosphatidylinositol (PI)4,5-bisphosphate [PI(4,5)P2] | binds directly | triggers myristate exposure | 
